How the values were obtained:
NIH3T3 cells [1] = assay: cholesterol peeling strand dissociation from the cell; assay type: cell-based; conditions: at 90 min after washing
Protocol: FIG. 5E provides a scheme showing the measurement of cholesterol peeling strand dissociation from the cell. NIH3T3 cells were incubated with 100 nM cholesterol peeling strand for 30 min and rinsed with PBS 3 times. Cells were divided into 6 aliquots and the remaining cholesterol strand in cells was measured every 30 min for 150 min by flow cytometry.
The normalized MFI from 2 replicates was plotted to show the dissociation of cholesterol strand over time in NIH3T3 cells.
(§1) After confirming that DNA peeling consistently maps molecular traction forces, cholesterol-DNA cell tagging for TaCT was investigated. Cholesterol-DNA is contemplated to partition into the plasma membrane of cells. […] The stability of TaCT tags was examined by incubating cholesterol-single stranded DNA with cells, washing, and measuring the loss of DNA as a function of time. Approximately 20-30% of the cholesterol-tethered DNA dissociated at 90 min. Accordingly, the cells were incubated on the surface for 1 h, which allowed for focal adhesion formation and TaCT method to proceed while limiting cholesterol dissociation.

mouse platelets [2] = assay: flow cytometry of DNA strand uptake in solution (cholesterol-DNA cell tagging); assay type: cell-based; conditions: 50 nM, 30 min
Protocol: FIG. 5A illustrates a scheme for making flow cytometry measurements of the DNA strands uptake in solution. Mouse platelets were incubated with 50 nM of cholesterol peeling strand, TaCT duplex, load-bearing strand, TaCT duplex lacking RGD, and load-bearing strand lacking RGD in Tyrode's buffer for 30 min and spun down three times to wash away the excess oligos. The association was measured in both Atto647N and Cy3B channels by a flow cytometer.
as §1

MEF cells [3] = assay: concentration dependent incorporation of cholesterol peeling strand; assay type: cell-based, mouse; conditions: 0, 1, 10, 100 nM, 1 h
Protocol: FIG. 5C provides a scheme showing flow cytometry measurements of the concentration dependent incorporation of cholesterol peeling strand. MEF cells were incubated with 0, 1, 10, and 100 nM of cholesterol peeling strand for 1 h. The excess cholesterol peeling strand was washed away by spinning down in PBS three times, and the fluorescence intensity of cells was measured by a flow cytometer.
Linear relationship between cholesterol strand concentration and cell association was found, R2=0.977.
as §1

MEF cells (WT and vin−) = assay: TaCT on co-cultured WT and vinculin null MEF cells, flow cytometry; assay type: cell-based, mouse
Protocol: Vinculin is an adaptor protein that localizes to FAs linking the cytoskeleton to adhesion receptors and aids in FA maturation. TaCT was performed on these two cell types separately. The vin− cells were stained with cell tracker dye, CMFDA, before plating onto TaCT substrates. To ensure that the TaCT signal is not due to differential uptake, cholesterol uptake of WT and vin− cells was measured by flow cytometry in parallel with each TaCT assay. WT cells had larger spreading area and produced more tension signal compared to vin− cells in the Cy3B channel. […] Experiments were performed to determine whether this differential tension signal could be detected when the WT and vin− were co-cultured.

NIH3T3 cells [4] = assay: TaCT signal by flow cytometry, NIH3T3 cells on TaCT substrates; assay type: cell-based
Protocol: FIG. 1 provides a scheme of tension-activated cell tagging (TaCT). TaCT is based on 3′ and 5′ end mechanical pulling of a DNA duplex that leads to dehybridization. The stability of a dsDNA 24 mer was evaluated as a function of applied force generated using oxDNA simulation with a loading rate of 2.81×10^3 nm/s. The exponential moving average (EMA) indicates a 41 pN dehybridization transition. Flow cytometry histograms of NIH3T3 cells cultured on TaCT substrates as well as control surfaces with (−)cholesterol, (−)RGD, and (+)LatB were obtained.
NIH3T3 cells were seeded onto the TaCT substrates, allowed to spread, and collected by gentle scraping. The TaCT signal was then measured by flow cytometry. Probes lacking RGD, probes lacking cholesterol, as well as full TaCT probes cells treated with Lat B were used as negative controls. […] Background tagging of cells due to cell spreading and proximity to the surface leads to negligible TaCT signal.

mouse platelets [5] = assay: TaCT signal by flow cytometry, mouse platelets on TaCT surface; assay type: cell-based; conditions: mouse platelets seeded 30 min
Protocol: Experiments were performed to determine whether this strategy works in primary cells. […] When mouse platelets were seeded onto the TaCT surface for 30 min, a loss of Atto647N signal was noted that was coupled with an increase in Cy3B. This confirmed that platelet integrin force transmission was sufficient to mediate DNA peeling with F greater than 41 pN.

[6] = FRET efficiency of surface-immobilized TaCT probes; assay type: physicochemical
Description: In one example, TaCT probe is comprised of a load-bearing strand and a 24mer peeling strand. […] The loading-bearing strand also incorporated an internal Cy3B dye. The complementary peeling strand was designed to release once force (F) is greater than F peel. The peeling strand termini were labeled with Atto647N and cholesterol. The TaCT probes were annealed and immobilized on streptavidin-coated glass slides. At rest, the probe is in the dsDNA form where Cy3B and Atto647N form a FRET pair. When F is greater than F peel, the Atto647N strand peels and dissociates, while the Cy3B dye on the load bearing strand is de-quenched. […] The probe density was measured at 5200 molecules/μm^2 using a quantitative fluorescence calibration, which allows one to convert the Cy3B fluorescence signal to a % peel.

[7] = system: mouse embryonic fibroblasts; assay: fluorescence microscopy of force-induced DNA duplex peeling under mouse embryonic fibroblasts; assay type: cell-based
Protocol: FIG. 4A illustrates Lat B inhibition of cells. […] RICM and Cy3B microscopy images were obtained from MEF cells incubated on peeling probe substrate after early Lat B treatment. Cells were treated with 20 μM Lat B after 15 min of plating on the substrate and imaged after 45 min of incubation.
FIG. 4B illustrates that when integrin force signals are already generated on peeling probe substrate, if the force transmission is terminated by late Lat B treatment, with additional BHQ2 peeling strand, the peeling probe can rehybridize to the duplex form. RICM and raw Cy3B microscopy images were obtained of MEF cells treated with 20 μM Lat B 50 min after seeding. The tension signal remained after 10 min of Lat B treatment and diminished after the addition of excess BHQ2 peeling strand.
The Cy3B signal was primarily localized to the cell edge, consistent with the distribution of focal adhesions (FAs) and accumulated as a function of time. The growth of Cy3B signal corresponded to the loss of Atto647N signal and confirmed the force-induced peeling mechanism. This mechanism can generate high quality maps of integrins forces independent of cholesterol conjugation to the probe. […] The observed tension signal colocalized with markers of FAs such as vinculin and phosphorylated focal adhesion kinase (FAK pY397), as well as actin stress fibers, confirming that forces were primarily transmitted by integrins within FAs. The peeling signal mirrors that of the turn-on tension gauge tether (TGT) probes but avoids termination of mechanotransduction which represents an advantage as a molecular force sensor. […] Maps accumulated mechanical events over time.

MEF cells [8] = assay: Y27632 dose-dependent response of TaCT / tension signal in MEF cells; assay type: cell-based, mouse; conditions: Y27632 pre-treatment
Description: To showcase that TaCT is an effective method to report cell receptor forces, a Rho-associated protein kinase (ROCK) inhibitor, Y27632, was used to disrupt the force transmission through cytoskeleton and measure the dose-dependent response in MEF cells. Y27632 inhibits ROCK kinases by competing with ATP binding, and further result in decreased myosin activity, destabilization of actin filament and abolished stress formation.

[9] = target: Rho-associated protein kinase (ROCK); conditions: cited from earlier work

For “Cholesterol-single stranded DNA conjugates: 24 mer peeling strand (SEQ ID NO: 2) labeled with Atto647N and cholesterol (DNA AGTTCTAAGACTTCAGAGCTCACT; DNA, backbone and methylation of C not given here; Atto647N and cholesterol on the termini)”, the “cholesterol-tethered DNA dissociated” value (NIH3T3 cells [1]) was 20-30%, the “effectiveness at tagging cells compared to cholesterol-double stranded DNA conjugates” value (mouse platelets [2]) was “approximately 50 fold” and the “membrane-association versus soluble conjugate concentration” value (MEF cells [3]) was “linearly proportional”.
In the case of “TaCT probe: DNA duplex: RGD/Cy3B/biotin load-bearing strand (SEQ ID NO: 1) and 24mer Atto647N, cholesterol peeling strand (SEQ ID NO: 2) (DNA 1 TTTTTTTTTTAGTGAGCTCTGAAGTCTTAGAACT; DNA 2 AGTTCTAAGACTTCAGAGCTCACT; DNA, backbone and methylation of C not given here; RGD and biotin at the two termini, internal Cy3B, peeling strand Atto647N and cholesterol)”, the force positive population (MEF cells (WT and vin−); WT MEF cells in mixed population (co-culture)) is reported as 24.4%, the force positive population (MEF cells (WT and vin−); vin− MEF cells in mixed population (co-culture)) is reported as 5.2% and the “Atto647N geometric mean fluorescence intensity (gMFI) increase compared to controls” value (NIH3T3 cells [4]; NIH3T3 cells incubated on TaCT) is reported as “greater than 2 fold”. The “Cy3B gMFI” value (NIH3T3 cells [4]; NIH3T3 cells incubated on TaCT compared to controls) was “did not change”, the force positive population (NIH3T3 cells [4]; NIH3T3 cells on substrate, 1 h, flow cytometry) was 27.6% and the force positive population (mouse platelets [5]) was 13.3%. For the same molecule, the “Cy3B signal enhancement upon peeling” value [6] was “greater than 10 fold”, the FRET efficiency ([6]; Cy3B / Atto647N pair in dsDNA form) was 93.8% and the “mechanical events with F greater than 41 pN” value ([7]; equivalent of % peel and probe density) was “approximately 47 mechanical events/μm^2”. For the same molecule, the “probes peeled under each cell” value ([7]; quantitative microscopy analysis) was 0.9%.
In the case of `C/C1=C/C(=O)O[C@@H]2C[C@@H](CC[C@H](C)/C=C\CC1)O[C@@](O)([C@@H]1CSC(=O)N1)C2` [Lat B, Latrunculin B, reference compound], the force positive population (NIH3T3 cells [4]; NIH3T3 cells on full TaCT probes, cells treated with Lat B) is reported as 3.5%, the tension signal changes ([7]; Lat B 50 min after seeding (20 μM)) is reported as “did not show tension signal changes” and the peeling signal ([7]; cells treated with Lat B (early, 20 μM)) is reported as “significantly reduced peeling signal”.
For `C[C@@H](N)[C@H]1CC[C@H](C(=O)Nc2ccncc2)CC1` [Y27632], the IC50 (MEF cells [8]; Mus musculus, flow cytometry, ROCK inhibitor) is given as 0.773 µM, the Cy3B tension signal (MEF cells [8]; microscopy) is given as “decreased Cy3B tension signal” and the “literature reported IC50 values” [9] is given as “hundreds of nM to low μM”.
